{"source": "patent US20230132823A1", "about": "“BI-FUNCTIONAL COMPOUNDS AND METHODS FOR TARGETED UBIQUITINATION OF ANDROGEN RECEPTOR” (MONTELINO THERAPEUTICS, INC., priority 2020, published 2023)", "key": {"AR-V7": {"molecular_target": "T1, AR-V7 (Homo sapiens, UniProt P10275)", "T1 sequence (P10275 1-644 isoform P10275-3)": "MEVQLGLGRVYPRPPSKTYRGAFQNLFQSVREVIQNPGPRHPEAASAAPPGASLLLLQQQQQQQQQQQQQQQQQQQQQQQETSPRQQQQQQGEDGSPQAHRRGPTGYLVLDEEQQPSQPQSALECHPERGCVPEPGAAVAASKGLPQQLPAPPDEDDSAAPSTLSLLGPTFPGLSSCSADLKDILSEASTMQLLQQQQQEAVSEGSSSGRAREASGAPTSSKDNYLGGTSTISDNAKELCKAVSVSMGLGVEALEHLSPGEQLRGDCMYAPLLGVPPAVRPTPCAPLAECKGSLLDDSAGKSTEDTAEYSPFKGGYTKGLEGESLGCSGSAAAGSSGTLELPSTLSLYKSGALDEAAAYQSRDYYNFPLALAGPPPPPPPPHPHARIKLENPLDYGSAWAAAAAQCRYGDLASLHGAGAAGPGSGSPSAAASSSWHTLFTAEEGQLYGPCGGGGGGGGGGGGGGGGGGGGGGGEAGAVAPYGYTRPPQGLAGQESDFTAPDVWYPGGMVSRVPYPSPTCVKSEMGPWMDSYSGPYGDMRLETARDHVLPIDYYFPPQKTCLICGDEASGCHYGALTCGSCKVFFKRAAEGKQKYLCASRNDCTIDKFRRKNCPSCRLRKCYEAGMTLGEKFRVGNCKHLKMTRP", "assay": "Immunoblot of AR-V7 polyubiquitination in 22Rv1 pretreated with MG132", "type": "cell-based", "parameters": "endogenous in cells; host or cells: 22Rv1", "conditions": "22Rv1 pretreated with MG132 two hours; compound 1 μM", "protocol": "(§1) Immunoblot Analysis. CaP cells are collected and lysed with the lysis buffer (20 mM Tris-HCl (pH 7.5), 150 mM NaCl, 1 mM Na2EDTA, 1 mM EGTA, 1% Triton, 2.5 mM sodium pyrophosphate, 1 mM beta-glycerophosphate, 1 mM Na3VO4, and 1 μg/ml leupeptin) containing 1 mM phenylmethylsulfonyl fluoride (PMSF). Cell lysates are then centrifuged and protein in the supernatant is quantified. After separating 25-50 μg of protein using SDS-PAGE, samples are incubated with AR-V7, GR, PR, ERα, AR-FL, ubiquitin, or β-actin antibodies. For AR-V7, AR-FL, PR, GR, and ERα immunoblots, primary antibody is diluted 1:1000 in 5% skim milk. For the β-actin immunoblot, 1:10000 diluted primary antibody is used. All membranes are incubated overnight at 4° C. Following the incubation with appropriate secondary antibody, immunoblots are analyzed using SuperSignal West Femto Maximum Sensitivity Substrate (ThermoFisher).\nTo determine the ubiquitination status of AR proteins, 22Rv1 is pretreated with MG132 for two hours prior to adding Compound of Example 16 (at 1 μM)."}, "AR-FL": {"tested_on": "AR-FL", "assay": "Immunoblot of AR-FL in harvested xenograft tumors", "type": "in vivo, human", "protocol": "as §1, with “All membranes are incubated overnight at 4° C.” left out\nMice are then treated daily with Test Compound with or without enzalutamide via the indicated route (intratumoral, intraperitoneal, or oral) for five to six weeks. At the end of the study, all animals are sacrificed and tumors are harvested and analyzed. Statistical significance is calculated using the Student's t-test for paired comparisons of experimental groups and, where appropriate, by Wilcoxon rank sum test, and by 2-way ANOVA. […]\nThe in vivo effects of the Compound of Example 16 are assessed in mice using enzalutamide-resistant CaP xenografts. […]"}, "[1]": {"molecular_target": "T2, estrogen receptor alpha (ER) (Homo sapiens, UniProt P03372)", "T2 construct": "progesterone receptor (PR) a and b, and estrogen receptor alpha (ER); endogenous in cells; host or cells: 22Rv1", "T2 sequence (P03372 1-595)": "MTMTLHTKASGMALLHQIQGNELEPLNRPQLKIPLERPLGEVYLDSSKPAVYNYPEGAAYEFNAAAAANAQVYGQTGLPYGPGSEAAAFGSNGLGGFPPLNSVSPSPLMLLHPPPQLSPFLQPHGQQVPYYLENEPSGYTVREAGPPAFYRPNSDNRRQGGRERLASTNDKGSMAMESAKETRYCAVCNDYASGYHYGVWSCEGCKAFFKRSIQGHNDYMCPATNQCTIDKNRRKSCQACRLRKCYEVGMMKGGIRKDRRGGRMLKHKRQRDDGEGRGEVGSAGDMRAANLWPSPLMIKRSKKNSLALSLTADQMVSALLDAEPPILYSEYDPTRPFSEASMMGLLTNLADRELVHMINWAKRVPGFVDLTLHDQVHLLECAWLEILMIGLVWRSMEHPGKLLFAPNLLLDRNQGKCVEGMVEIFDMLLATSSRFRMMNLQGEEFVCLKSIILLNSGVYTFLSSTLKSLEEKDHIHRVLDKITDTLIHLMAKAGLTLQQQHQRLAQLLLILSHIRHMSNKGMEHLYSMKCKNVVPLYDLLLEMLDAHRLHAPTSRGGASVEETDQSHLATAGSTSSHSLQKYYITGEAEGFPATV", "assay": "Immunoblot of ER alpha in 22Rv1 cells", "type": "cell-based", "conditions": "22Rv1, 24 hours, up to 10 μM", "protocol": "Cell Culture. Human CaP cell lines, LNCaP, 22Rv1, VCaP, PC3, and DU145 are obtained from the American Type Culture Collection (ATCC) and maintained in the standard culture media: RPMI-1640 supplemented with 10% fetal bovine serum (FBS). LNCaP, 22Rv1, and VCaP are androgen-responsive cell lines, while PC3 and DU145 are not. To establish SAT resistant CaP cell lines, LNCaP, 22Rv1, and VCaP are treated continuously with 10-50 μM abiraterone, apalutamide, darolutamide, or enzalutamide. After 3-6 months, stable cell lines are established and designated as LNCaP-Abi^R, LNCaP-Apa^R, LNCaP-Daro^R, LNCaP-Enz^R, VCaP-Abi^R, VCaP-Apa^R, VCaP-Daro^R, VCaP-Enz^R, 22Rv1-Abi^R, 22Rv1-Apa^R, 22Rv1-Daro^R and 22Rv1-Enz^R. Unless otherwise specified, the standard culture media for these SAT-resistant cell lines included 10 μM of their respective SAT. For the proteasome inhibitor study, the inhibitors MG132 and Epoxomicin are used. The E3 ligase inhibitors Heclin, Nutlin 3a, Thalidomide, and VH298 are used. […] Mycoplasma contamination is also assessed using a PCR based detection system.\nImmunoblot Analysis. […] Cell lysates are then centrifuged and protein in the supernatant is quantified. […] Following the incubation with appropriate secondary antibody, immunoblots are analyzed using SuperSignal West Femto Maximum Sensitivity Substrate (ThermoFisher)."}}, "data": [{"smiles": "Cc1ncsc1-c1ccc([C@H](C)NC(=O)[C@@H]2C[C@@H](O)CN2C(=O)[C@@H](NC(=O)CCCCNC(=O)COc2c(-c3csc(N4CCOCC4)n3)ccc(F)c2F)C(C)(C)C)cc1", "note": "[Example 16, (2S,4R)-1-((S)-2-(5-(2-(2,3-difluoro-6-(2-morpholinothiazol-4-yl)phenoxy)acetamido)pentanamido)-3,3-dimethylbutanoyl)-4-hydroxy-N-((S)-1-(4-(4-methylthiazol-5-yl)phenyl)ethyl)pyrrolidine-2-carboxamide]", "values": [{"measurement": "start of polyubiquitination of AR-V7 after treatment", "setting": "AR-V7", "result": 6, "unit": "h"}, {"measurement": "AR-FL protein expression in Enz^R CaP tumors", "setting": "AR-FL; IP administration", "result": "decreased"}, {"measurement": "AR-FL protein level in treated tumors", "setting": "AR-FL; intratumoral, 22Rv1-Enz^R xenograft, end of study", "result": "significant decrease"}, {"measurement": "effect on expression level of estrogen receptor alpha (ER)", "setting": "[1]", "result": "no visible effect"}]}]}
